Measurements from patent publication US10988477B2 (Merck Patent GmbH, priority 2018, dated 2021).

molecular target: GCN2 kinase (Homo sapiens, UniProt Q9P2K8); experiment: GCN2 enzyme inhibition assay (Transcreener ADP2 fluorescence polarization); assay type: biochemical; conditions: Enzyme activity for compounds of Formula IV; Ki(app), 280 μM ATP, 25° C.
Procedure, shortened: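 Kinase activity is followed as ADP formation, measured by fluorescence polarization, using 4 nM enzyme with 280 μM ATP and 200 μM (RS)7 peptide at pH 7.5 and 25 °C for 1 h. Values come from a non-linear tight-binding fit.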

GCN2 kinase, sequence (Q9P2K8 whole entry): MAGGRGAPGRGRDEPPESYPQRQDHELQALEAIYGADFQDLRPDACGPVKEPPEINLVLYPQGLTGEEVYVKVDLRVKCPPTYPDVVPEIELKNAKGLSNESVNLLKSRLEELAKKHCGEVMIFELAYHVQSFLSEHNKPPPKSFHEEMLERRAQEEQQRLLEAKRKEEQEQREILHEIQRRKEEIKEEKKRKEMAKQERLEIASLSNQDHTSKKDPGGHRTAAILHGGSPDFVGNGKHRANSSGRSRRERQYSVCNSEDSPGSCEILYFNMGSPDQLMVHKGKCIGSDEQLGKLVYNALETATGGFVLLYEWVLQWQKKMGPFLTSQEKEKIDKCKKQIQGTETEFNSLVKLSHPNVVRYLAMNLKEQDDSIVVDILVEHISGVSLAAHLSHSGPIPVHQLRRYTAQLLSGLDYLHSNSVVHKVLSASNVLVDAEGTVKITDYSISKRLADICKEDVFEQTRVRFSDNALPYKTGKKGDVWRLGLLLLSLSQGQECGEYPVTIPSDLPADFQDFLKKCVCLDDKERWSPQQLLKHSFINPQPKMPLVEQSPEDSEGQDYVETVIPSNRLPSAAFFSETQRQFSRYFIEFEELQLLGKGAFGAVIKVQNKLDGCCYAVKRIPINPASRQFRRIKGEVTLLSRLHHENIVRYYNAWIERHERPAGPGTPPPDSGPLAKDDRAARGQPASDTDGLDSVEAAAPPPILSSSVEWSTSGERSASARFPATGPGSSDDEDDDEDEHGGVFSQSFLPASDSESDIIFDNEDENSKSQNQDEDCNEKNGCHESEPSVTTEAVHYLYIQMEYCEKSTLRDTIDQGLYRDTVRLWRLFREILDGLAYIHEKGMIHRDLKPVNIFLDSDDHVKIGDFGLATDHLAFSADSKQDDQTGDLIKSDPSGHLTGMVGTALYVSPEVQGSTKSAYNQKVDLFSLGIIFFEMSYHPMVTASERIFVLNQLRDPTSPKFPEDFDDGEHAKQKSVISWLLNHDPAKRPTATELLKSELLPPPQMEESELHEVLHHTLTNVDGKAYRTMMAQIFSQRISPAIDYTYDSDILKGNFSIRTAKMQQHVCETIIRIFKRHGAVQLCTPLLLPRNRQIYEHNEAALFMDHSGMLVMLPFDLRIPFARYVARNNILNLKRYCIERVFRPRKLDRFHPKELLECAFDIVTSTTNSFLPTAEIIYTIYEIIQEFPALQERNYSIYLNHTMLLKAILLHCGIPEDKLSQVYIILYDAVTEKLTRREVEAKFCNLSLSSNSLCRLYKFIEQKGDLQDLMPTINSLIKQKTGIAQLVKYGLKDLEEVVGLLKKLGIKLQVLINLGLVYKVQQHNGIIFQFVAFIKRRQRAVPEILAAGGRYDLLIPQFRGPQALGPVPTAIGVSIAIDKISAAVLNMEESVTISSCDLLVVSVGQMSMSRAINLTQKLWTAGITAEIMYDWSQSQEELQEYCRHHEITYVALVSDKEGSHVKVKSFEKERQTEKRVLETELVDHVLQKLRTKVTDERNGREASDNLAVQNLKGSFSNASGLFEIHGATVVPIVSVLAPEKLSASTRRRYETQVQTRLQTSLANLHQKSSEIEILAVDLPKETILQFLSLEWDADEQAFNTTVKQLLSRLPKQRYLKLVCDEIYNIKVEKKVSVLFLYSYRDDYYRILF

`Cc1nc(C2CCN(c3ccnc(-c4cnc5cnc(C(F)(F)F)cn45)n3)C2)n[nH]1` (centres unmarked) [IV-641, 3-(4-(3-(5-Methyl-1H-1,2,4-triazol-3-yl)pyrrolidin-1-yl)pyrimidin-2-yl)-6-(trifluoromethyl)imidazo[1,2-a]pyrazine] and `FC(F)(F)c1cn2c(-c3nccc(N4CCC(c5ccccn5)C4)n3)cnc2cn1` (centres unmarked) [IV-552, 3-(4-(3-(Pyridin-2-yl)pyrrolidin-1-yl)pyrimidin-2-yl)-6-(trifluoromethyl)imidazo[1,2-a]pyrazine] fall in the same range of Ki: 100 to 1000 nM for the first, 100 to 1000 nM for the second.

`O=C(Nc1cn[nH]c1)[C@@H]1CCCN(c2ccnc(-c3cnc4cnc(C(F)(F)F)cn34)n2)C1` [IV-725] and `N=S1(=O)CCN(c2ccnc(-c3cnc4cnc(C(F)(F)F)cn34)n2)CC1` [IV-729] cannot be ordered by Ki: over 1000 nM for the first, over 1000 nM for the second.

`Cc1[nH]ncc1C1NC(C)CN(c2ccnc(-c3cnc4cnc(Cl)cn34)n2)C1C` (single isomer, unassigned) [IV-283, 6-Chloro-3-(4-(2,5-dimethyl-3-(5-methyl-1H-pyrazol-4-yl)piperazin-1-yl)pyrimidin-2-yl)imidazo[1,2-a]pyrazine] and `CC1CN(c2ccnc(-c3cnc4cnc(C#N)cn34)n2)C(C)C(c2cn[nH]c2)N1` (single isomer, unassigned) [IV-313, 3-(4-(2,5-Dimethyl-3-(1H-pyrazol-4-yl)piperazin-1-yl)pyrimidin-2-yl)imidazo[1,2-a]pyrazine-6-carbonitrile] fall in the same range of Ki: 100 to 1000 nM for the first, 100 to 1000 nM for the second.

First: CCN1C(C)CN(c2ccnc(-c3cnc4cnc(C(F)(F)F)cn34)n2)C(C)C1c1cn[nH]c1 (single isomer, unassigned) [IV-295, 3-(4-(4-Ethyl-2,5-dimethyl-3-(1H-pyrazol-4-yl)piperazin-1-yl)pyrimidin-2-yl)-6-(trifluoromethyl)imidazo[1,2-a]pyrazine]
Second: CC1CC(C(N)=O)C(C)N(c2ccnc(-c3cnc4cnc(C(F)(F)F)cn34)n2)C1 (centres unmarked) [IV-464, 2,5-Dimethyl-1-(2-(6-(trifluoromethyl)imidazo[1,2-a]pyrazin-3-yl)pyrimidin-4-yl)piperidine-3-carboxamide]
The Ki of the first is higher: 100 to 1000 nM for the first, under 10 nM for the second. The second binds more tightly here.

First: NC(=O)c1cn2c(-c3nccc(N4CCN5C(=O)CCCC5C4)n3)cnc2cn1 (centres unmarked) [IV-257, 3-(4-(6-Oxooctahydro-2H-pyrido[1,2-a]pyrazin-2-yl)pyrimidin-2-yl)imidazo[1,2-a]pyrazine-6-carboxamide]
Second: CC(=O)N1CCN(c2ccnc(-c3cnc4cnc(-c5cccnc5)cn34)n2)CC1 [IV-289, 1-(4-(2-(6-(Pyridin-3-yl)imidazo[1,2-a]pyrazin-3-yl)pyrimidin-4-yl)piperazin-1-yl)ethan-1-one]
The Ki of the first is lower: 10 to 100 nM for the first, 100 to 1000 nM for the second.

First: CC1C(NS(C)(=O)=O)CCCN1c1ccnc(-c2cnc3cnc(C(F)F)cn23)n1 (centres unmarked) [IV-127, N-(1-(2-(6-(Difluoromethyl)imidazo[1,2-a]pyrazin-3-yl)pyrimidin-4-yl)-2-methylpiperidin-3-yl)methanesulfonamide]
Second: Cc1[nH]ncc1C1NC(C)CN(c2ccnc(-c3cnc4cnc(Cl)cn34)n2)C1C (centres unmarked) [IV-278, 6-Chloro-3-(4-(2,5-dimethyl-3-(5-methyl-1H-pyrazol-4-yl)piperazin-1-yl)pyrimidin-2-yl)imidazo[1,2-a]pyrazine]
The Ki of the first is higher: 100 to 1000 nM for the first, under 10 nM for the second. The second binds more tightly here.

For `FC(F)(F)c1cn2c(-c3nccc(N4CCOC(c5ccccn5)C4)n3)cnc2cn1` (centres unmarked) [IV-717], the Ki was 100 to 1000 nM.

same assay, conditions: compounds of Formula II; 280 μM ATP, 4 nM GCN2 kinase

Compared with `CC(=O)N1CCN(c2cc(-c3cnc4ccc(C(F)F)nn34)ncn2)C(C)C1CNS(C)(=O)=O` (centres unmarked) [II-515, N-((1-Acetyl-4-(6-(6-(difluoromethyl)imidazo[1,2-b]pyridazin-3-yl)pyrimidin-4-yl)-3-methylpiperazin-2-yl)methyl)methanesulfonamide], `CC1C(CCO)N(C)CCN1c1cc(-c2cnc3ccc(C(F)F)nn23)ncn1` (centres unmarked) [II-536, 2-(4-(6-(6-(Difluoromethyl)imidazo[1,2-b]pyridazin-3-yl)pyrimidin-4-yl)-1,3-dimethylpiperazin-2-yl)ethan-1-ol] is higher in Ki: under 10 nM for the first, 10 to 1000 nM for the second.

First: COCCOC1CC(CNS(C)(=O)=O)CN(c2cc(-c3cnc4ccc(C(F)F)nn34)ncn2)C1 (centres unmarked) [II-549, N-((1-(6-(6-(Difluoromethyl)imidazo[1,2-b]pyridazin-3-yl)pyrimidin-4-yl)-5-(2-methoxyethoxy)piperidin-3-yl)methyl)methanesulfonamide]
Second: CCC1CC(N=S(C)(C)=O)CN(c2cc(-c3cnc4ccc(C(F)F)nn34)ncn2)C1 (centres unmarked) [II-648, ((1-(6-(6-(Difluoromethyl)imidazo[1,2-b]pyridazin-3-yl)pyrimidin-4-yl)-5-ethylpiperidin-3-yl)imino)dimethyl-λ^6-sulfanone]
The Ki of the first is higher: 10 to 1000 nM for the first, under 10 nM for the second.

First: CC1CC(CS(C)(=O)=O)C(C)N(c2cc(-c3cnc4ccc(C(F)F)nn34)ncn2)C1 (single isomer, unassigned) [II-625, 6-(Difluoromethyl)-3-[6-[2,5-dimethyl-3-(methylsulfonylmethyl)-1-piperidyl]pyrimidin-4-yl]imidazo[1,2-b]pyridazine]
Second: C[C@@H]1C[C@H](CO)[C@H](C)N(c2cc(-c3cnc4ccc(C(F)F)nn34)ncn2)C1 (single isomer, unassigned) [II-585]
The Ki of the first is higher: 10 to 1000 nM for the first, under 10 nM for the second.

`CC1CC(CS(C)(=O)=O)C(C)N(c2cc(-c3cnc4ccc(C(F)F)nn34)ncn2)C1` (centres unmarked) [II-588, 6-(difluoromethyl)-3-[6-[2,5-dimethyl-3-(methylsulfonylmethyl)-1-piperidyl]pyrimidin-4-yl]imidazo[1,2-b]pyridazine] and `CC1CC(CO)C(C)N(c2cc(-c3cnc4ccc(C(F)F)nn34)ncn2)C1` (single isomer, unassigned) [II-586, (1-(6-(6-(Difluoromethyl)imidazo[1,2-b]pyridazin-3-yl)pyrimidin-4-yl)-2,5-dimethylpiperidin-3-yl)methanol] fall in the same range of Ki: 10 to 1000 nM for the first, 10 to 1000 nM for the second.

`CC1CC(C(N)=O)C(C)N(c2cc(-c3cnc4ccc(C(F)(F)F)nn34)ncn2)C1` (single isomer, unassigned) [II-718, 2,5-Dimethyl-1-[6-[6-(trifluoromethyl)imidazo[1,2-b]pyridazin-3-yl]pyrimidin-4-yl]piperidine-3-carboxamide] and `CC1C(N=S(C)(C)=O)CCCN1c1cc(-c2cnc3ccc(C(F)F)nn23)ncn1` (single isomer, unassigned) [II-581, ((1-(6-(6-(Difluoromethyl)imidazo[1,2-b]pyridazin-3-yl)pyrimidin-4-yl)-2-methylpiperidin-3-yl)imino)dimethyl-λ^6-sulfanone] fall in the same range of Ki: 10 to 1000 nM for the first, 10 to 1000 nM for the second.

`CC(NS(C)(=O)=O)C1CCCN(c2cc(-c3cnc4ccc(C(F)F)nn34)ncn2)C1` (centres unmarked) [II-620, N-(1-(1-(6-(6-(Difluoromethyl)imidazo[1,2-b]pyridazin-3-yl)pyrimidin-4-yl)piperidin-3-yl)ethyl)methanesulfonamide] and `CS(C)(=O)=NCC1CCCN(c2cc(-c3cnc4ccc(C(F)F)nn34)ncn2)C1` (centres unmarked) [II-573, (((1-(6-(6-(Difluoromethyl)imidazo[1,2-b]pyridazin-3-yl)pyrimidin-4-yl)piperidin-3-yl)methyl)imino)dimethyl-λ^6-sulfanone] fall in the same range of Ki: 10 to 1000 nM for the first, 10 to 1000 nM for the second.

same assay, conditions: compounds of Formula IV; 280 μM ATP, 4 nM GCN2 kinase

Compound `Cc1n[nH]cc1[C@@H]1C[C@H](C)CN(c2nccc(-c3cnc4cnc(C(F)(F)F)cn34)n2)C1` [IV-759, 3-(2-((3S,5S)-3-methyl-5-(3-methyl-1H-pyrazol-4-yl)piperidin-1-yl)pyrimidin-4-yl)-6-(trifluoromethyl)imidazo[1,2-a]pyrazine] has an IC50 of 10 to 1000 nM.
